In patent EP2077855B1, “THERAPEUTIC USE OF GBA2” (Yildiz, Dr. med., Yildiz, priority 2006, dated 2008):
Blank lines part the entries; values can stand above or below the molecule they belong to.

Assays:
[1] = system: bile acid β-glucosidase activity of GBA2; test: Bile acid β-glucosidase activity, liver microsomal enzyme from wild type mouse; type: biochemical
[2] = target: T1, bile acid β-glucosidase activity of GBA2 (Homo sapiens, UniProt Q9HCG7); test: Bile acid β-glucosidase activity, human enzyme expressed in COS-7-cells; type: biochemical; conditions: read-out: β-Glucosidase activity % of control
T1 construct: expressed in transfected cells; host or cells: COS-7
T1 sequence (Q9HCG7 1-927): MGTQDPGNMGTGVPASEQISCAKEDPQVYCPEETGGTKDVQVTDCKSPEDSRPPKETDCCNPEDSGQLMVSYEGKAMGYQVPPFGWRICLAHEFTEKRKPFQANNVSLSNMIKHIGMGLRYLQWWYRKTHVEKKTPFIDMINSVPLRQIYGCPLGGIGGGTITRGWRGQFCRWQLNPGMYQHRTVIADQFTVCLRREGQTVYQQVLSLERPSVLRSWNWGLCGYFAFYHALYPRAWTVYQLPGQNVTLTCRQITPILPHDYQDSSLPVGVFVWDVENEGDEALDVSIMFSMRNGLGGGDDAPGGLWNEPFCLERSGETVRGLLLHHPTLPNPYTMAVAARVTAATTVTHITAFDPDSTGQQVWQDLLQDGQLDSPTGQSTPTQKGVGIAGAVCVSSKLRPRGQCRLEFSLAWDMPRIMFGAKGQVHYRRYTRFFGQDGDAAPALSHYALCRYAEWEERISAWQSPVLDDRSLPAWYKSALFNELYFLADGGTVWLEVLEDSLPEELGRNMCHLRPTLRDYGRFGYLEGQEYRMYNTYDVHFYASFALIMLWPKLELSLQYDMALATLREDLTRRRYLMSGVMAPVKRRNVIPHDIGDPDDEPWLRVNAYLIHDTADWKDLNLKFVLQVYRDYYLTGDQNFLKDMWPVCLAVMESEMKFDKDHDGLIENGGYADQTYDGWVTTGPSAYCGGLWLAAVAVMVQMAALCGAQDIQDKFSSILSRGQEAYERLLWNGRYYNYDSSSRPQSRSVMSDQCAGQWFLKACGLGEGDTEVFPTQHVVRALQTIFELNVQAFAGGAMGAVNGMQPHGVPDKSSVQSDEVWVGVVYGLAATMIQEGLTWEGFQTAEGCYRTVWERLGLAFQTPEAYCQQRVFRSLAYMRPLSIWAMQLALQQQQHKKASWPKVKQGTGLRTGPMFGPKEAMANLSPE

[3] = target: T2, bile acid glucosyltransferase activity of GBA2 (Homo sapiens, UniProt Q9HCG7); test: Bile acid glucosyltransferase activity, human enzyme expressed in COS-7-cells; type: biochemical; conditions: read-out: Transferase activity % of control
T2 construct: expressed in transfected cells; host or cells: COS-7
T2 sequence (Q9HCG7 1-927): T1 sequence (Q9HCG7 1-927)

[4] = target: T3, bile acid β-glucosidase activity of GBA2 (Mus musculus, UniProt Q69ZF3); test: Bile acid β-glucosidase activity, murine enzyme expressed in COS-7-cells; type: biochemical; conditions: read-out: β-Glucosidase activity % of control
T3 construct: expressed in transfected cells; host or cells: COS-7
T3 sequence (Q69ZF3 1-918): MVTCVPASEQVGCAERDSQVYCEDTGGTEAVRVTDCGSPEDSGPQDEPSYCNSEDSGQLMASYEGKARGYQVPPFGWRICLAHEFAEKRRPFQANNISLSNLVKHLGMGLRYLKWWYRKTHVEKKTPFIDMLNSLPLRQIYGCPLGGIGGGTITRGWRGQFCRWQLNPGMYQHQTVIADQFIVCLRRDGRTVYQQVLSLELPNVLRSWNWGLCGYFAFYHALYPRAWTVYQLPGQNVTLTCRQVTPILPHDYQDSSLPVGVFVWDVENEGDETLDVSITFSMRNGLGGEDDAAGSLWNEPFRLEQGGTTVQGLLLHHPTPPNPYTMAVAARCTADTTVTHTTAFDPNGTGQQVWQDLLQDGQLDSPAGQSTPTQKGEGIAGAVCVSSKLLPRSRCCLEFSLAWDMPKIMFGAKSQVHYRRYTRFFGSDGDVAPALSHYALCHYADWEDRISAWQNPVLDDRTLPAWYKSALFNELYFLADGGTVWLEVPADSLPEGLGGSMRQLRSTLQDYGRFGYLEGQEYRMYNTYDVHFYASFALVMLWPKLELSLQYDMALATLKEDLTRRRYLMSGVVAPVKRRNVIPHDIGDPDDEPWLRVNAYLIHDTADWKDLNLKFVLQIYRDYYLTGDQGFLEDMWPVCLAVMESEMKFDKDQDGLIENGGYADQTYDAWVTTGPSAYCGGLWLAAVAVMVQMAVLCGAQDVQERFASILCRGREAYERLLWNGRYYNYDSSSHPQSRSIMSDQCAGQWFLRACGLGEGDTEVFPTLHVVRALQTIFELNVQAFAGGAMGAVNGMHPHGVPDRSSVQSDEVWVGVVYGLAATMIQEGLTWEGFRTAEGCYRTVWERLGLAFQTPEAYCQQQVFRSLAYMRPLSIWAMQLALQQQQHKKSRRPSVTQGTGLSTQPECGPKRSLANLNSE

[5] = system: liver microsomal β-glucosidase activity from GBA2 (-/-) mice; test: Liver microsomal β-glucosidase activity from GBA2 (-/-) mice; type: biochemical; conditions: liver microsomes from GBA2 (-/-) mice
[6] = target: T4, bile acid glucosyltransferase activity of GBA2 (Mus musculus, UniProt Q69ZF3); test: Bile acid glucosyltransferase activity, murine enzyme expressed in COS-7-cells; type: biochemical; design: expressed in transfected cells; host or cells: COS-7; conditions: read-out: Transferase activity % of control
T4 sequence (Q69ZF3 1-918): T3 sequence (Q69ZF3 1-918)

[7] = target: T4, bile acid glucosyltransferase activity of GBA2; test: Bile acid glucosyltransferase activity, liver microsomal enzyme from wild type mouse; type: biochemical; design: from tissue; host or cells: mouse liver microsomes (wild type); conditions: read-out: Transferase activity % of control
mice = conditions: administration to mice; cited from earlier work
rodents = conditions: administered to rodents; cited from earlier work
GBA2 = test: Summary statement on the screening for GBA2 antagonists; type: biochemical; conditions: summary of Example 22

β-Glucosidase activity % of control ([1]; 50 µM): 46.9%
remaining activity at 1000 µM ([2]; 1000 µM, human enzyme expressed in COS-7-cells): 55.7%
remaining activity at 2000 µM ([3]; 2000 µM): 64.6%
remaining activity at 1000 µM ([4]; 1000 µM): 44.9%
β-Glucosidase activity % of control ([5]; 20 µM): 58.9%
remaining activity at 2000 µM ([6]; 2000 µM): 48.6%
remaining activity at 2000 µM ([7]; 2000 µM): 60%
SMILES: O[C@H]1[C@H](O)[C@@H](O)[C@@H]2O[C@@H]2[C@@H]1O (racemic) [Conduritol B epoxide, reference compound]

SMILES: OC[C@H]1NC[C@H](O)[C@@H](O)[C@@H]1O [1-Deoxynojirimycin]
male infertility and globozoospermia (mice): causes male infertility and globozoospermia

SMILES: CCCCN1C[C@H](O)[C@@H](O)[C@H](O)[C@H]1CO [Butyl-dNM, N-butyldeoxynojirimycin]
globozoospermia (rodents): causes globozoospermia

SMILES: CCCCCCCCCCCCN1C[C@H](O)[C@@H](O)[C@H](O)[C@H]1CO [Dodecyl-dNM, dodecyldeoxynojirimycin]
β-Glucosidase activity % of control ([1]; 0.001 µM): 51.9%
remaining activity at 0.0002 µM [2]: 49.3%
remaining activity at 0.002 µM ([3]; 0.002 µM): 50.7%
remaining activity at 0.0001 µM ([4]; 0.0001 µM): 59.5%
β-Glucosidase activity % of control ([5]; 0.2 µM): 57.8%
inhibitory effect on β-glucosidase and transferase activity (especially on GBA2) (GBA2): considerable inhibitory effect
remaining activity at 0.001 µM ([6]; 0.001 µM): 47.3%
remaining activity at 0.0006 µM ([7]; 0.0006 µM): 49.4%
